Assay results as given in PubChem BioAssay (NCI).
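Each compound was tested at five concentrations against cells in 96-well plates for 48 hours. Abbreviation: GI50, concentration required for 50% inhibition of growth. Definition used: TGI = concentration required for complete inhibition of growth.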

What was measured:
Experiment in all cases: NCI tumour cell line growth inhibition, 48 h
[1] = system: K-562 leukemia
[2] = system: RXF 393 renal
[3] = system: MOLT-4 leukemia
[4] = system: SF-539 CNS
[5] = system: CCRF-CEM leukemia
[6] = system: HOP-92 NSCLC
[7] = system: OVCAR-5 ovarian
[8] = system: TK-10 renal
[9] = system: CAKI-1 renal
[10] = system: A498 renal

CCNC(=S)N/N=C/c1cc(OC)ccc1O
TGI [1]: > 100 µM
TGI [2]: > 100 µM
TGI [3]: > 100 µM
TGI [4]: > 100 µM
TGI [5]: > 100 µM
TGI [6]: > 100 µM
TGI [7]: > 100 µM
TGI [8]: > 100 µM

COc1ccc(/C=N\N2CC(=O)N3C4C=CC(CC4)N3C2=O)cc1 (stereo not given)
TGI [1]: > 100 µM
TGI [9]: > 100 µM
TGI [10]: > 100 µM
TGI [3]: > 100 µM
TGI [4]: > 100 µM
TGI [5]: > 100 µM
TGI [6]: > 100 µM
TGI [7]: > 100 µM
TGI [8]: > 100 µM

CCCCC/C=C1/CC(CO)(COC(=O)CC(C(C)C)C(C)C)OC1=O (stereo not given)
TGI [1]: 66.3 µM
TGI [2]: 29.8 µM
TGI [9]: 23.1 µM
TGI [10]: 26.5 µM
TGI [3]: 26.2 µM
TGI [5]: > 100 µM
TGI [6]: 21.5 µM
TGI [7]: 29.7 µM
TGI [8]: 32.5 µM

O=[N+]([O-])C(/C(Cl)=C(/Cl)N1CCOCC1)=C1\NCCO1
TGI [9]: > 100 µM
TGI [10]: > 100 µM
TGI [3]: > 100 µM
TGI [4]: > 100 µM
TGI [5]: > 100 µM
TGI [7]: > 100 µM

Cc1cc2c(cc1-c1cc3c(cc1C)C(C(C)C)=C(O)C(=O)/C3=C\Nc1nc(-c3ccccc3)cs1)/C(=C/Nc1nc(-c3ccccc3)cs1)C(=O)C(O)=C2C(C)C
TGI [1]: > 100 µM
TGI [2]: 54.5 µM
TGI [9]: > 100 µM
TGI [10]: 98.6 µM
TGI [3]: > 100 µM
TGI [4]: 43.9 µM
TGI [5]: 64.4 µM
TGI [6]: 55.7 µM

CC1CN=C(Nc2cccc(C(F)(F)F)c2)S1 (stereo not given)
TGI [1]: > 100 µM
TGI [2]: > 100 µM
TGI [10]: > 100 µM
TGI [3]: > 100 µM
TGI [4]: > 100 µM
TGI [5]: > 100 µM
TGI [7]: > 100 µM
TGI [8]: > 100 µM

C=CCOc1ccc(C2c3c([nH][nH]c3=O)CC(O)(OCC)C2C(=O)OCC)cc1OC (stereo not given)
TGI [9]: > 100 µM
TGI [10]: > 100 µM
TGI [3]: > 100 µM
TGI [4]: > 100 µM
TGI [5]: > 100 µM
TGI [6]: > 100 µM
TGI [7]: > 100 µM
TGI [8]: > 100 µM

CCOC(=O)C1=CN=C2C(=O)N(c3ccccc3)N(C)C2(C)C1=N (stereo not given)
TGI [1]: > 100 µM
TGI [2]: > 100 µM
TGI [9]: > 100 µM
TGI [10]: > 100 µM
TGI [4]: > 100 µM
TGI [5]: > 100 µM
TGI [6]: > 100 µM
TGI [7]: > 100 µM
TGI [8]: > 100 µM

CCCC1NC(C#N)(C#N)C(CCC)NC1(C#N)C#N (stereo not given)
TGI [1]: > 77.6 µM
TGI [2]: > 66.9 µM
TGI [9]: > 50.4 µM
TGI [10]: > 96.4 µM
TGI [3]: 1.99 µM
TGI [5]: 17.8 µM
TGI [6]: > 32.4 µM
TGI [7]: > 90.1 µM
TGI [8]: > 100 µM

Cc1cc(O)c(C(C)C)cc1NC(=O)Nc1cccc2ccccc12
TGI [1]: > 100 µM
TGI [2]: 29.4 µM
TGI [9]: 30.7 µM
TGI [10]: 26.5 µM
TGI [3]: > 100 µM
TGI [6]: 40.8 µM
TGI [7]: 56.4 µM
TGI [8]: 32.5 µM

CSC1=Nc2ccccc2-c2nc(-c3ccccc3)cc(-c3ccccc3)c2C1
TGI [1]: > 100 µM
TGI [2]: 45 µM
TGI [9]: 30 µM
TGI [10]: > 100 µM
TGI [3]: > 100 µM
TGI [4]: > 100 µM
TGI [5]: > 100 µM
TGI [7]: > 100 µM
TGI [8]: 36.8 µM

O=C1COC(c2ccccc2O)=NN1CCCN1CCCC1
TGI [2]: > 100 µM
TGI [9]: > 100 µM
TGI [10]: > 100 µM
TGI [3]: > 100 µM
TGI [4]: > 100 µM
TGI [6]: > 100 µM
TGI [7]: > 100 µM
TGI [8]: > 100 µM

Cc1c(-c2ccccc2)c(C#N)c2nnn(-c3ccccc3)c(=O)n12
TGI [1]: > 100 µM
TGI [2]: > 100 µM
TGI [9]: > 100 µM
TGI [10]: > 100 µM
TGI [4]: > 100 µM
TGI [5]: > 100 µM
TGI [6]: > 100 µM
TGI [7]: > 100 µM
TGI [8]: > 100 µM

O=C(NCC1Nc2ccncc2S(=O)(=O)N1)c1ccc(Br)cc1 (stereo not given)
TGI [1]: > 100 µM
TGI [2]: > 100 µM
TGI [9]: > 100 µM
TGI [10]: > 100 µM
TGI [3]: > 100 µM
TGI [6]: > 100 µM
TGI [7]: > 100 µM
TGI [8]: > 100 µM

c1ccc2c(c1)c1c(n2CCOCCN2CCCCC2)CCCC1
TGI [1]: 26.7 µM
TGI [3]: 26.7 µM
TGI [4]: 31.7 µM
TGI [5]: 29.6 µM
TGI [6]: 22.3 µM
TGI [7]: 25.7 µM
TGI [8]: 27.3 µM

CCOC(=O)c1ccc(-c2cc(C)[nH]n2)[nH]1
TGI [2]: > 100 µM
TGI [9]: > 100 µM
TGI [10]: > 100 µM
TGI [4]: > 100 µM
TGI [5]: > 100 µM
TGI [6]: > 100 µM
TGI [7]: > 100 µM
TGI [8]: > 100 µM

O=C1NN=C(c2ccc(Cl)cc2)CC1C1C(=O)N(c2ccccc2)N=C1c1ccccc1 (stereo not given)
TGI [1]: > 100 µM
TGI [2]: 70.9 µM
TGI [10]: 84.4 µM
TGI [3]: > 100 µM
TGI [4]: 66.8 µM
TGI [5]: 76.3 µM
TGI [7]: 80.7 µM
TGI [8]: > 100 µM

CCCSc1cc(Cl)c(C)cc1S(=O)(=O)n1ccnc1OCCCN(C)C
TGI [1]: > 100 µM
TGI [2]: > 100 µM
TGI [9]: > 100 µM
TGI [10]: > 100 µM
TGI [3]: > 100 µM
TGI [4]: > 100 µM
TGI [5]: > 100 µM
TGI [7]: > 100 µM
TGI [8]: > 100 µM

COc1cc(C2c3cc4c(cc3C(O)C3CCC(=O)N23)OCO4)cc(OC)c1OC (stereo not given)
TGI [1]: > 100 µM
TGI [9]: > 100 µM
TGI [10]: > 100 µM
TGI [3]: > 100 µM
TGI [5]: > 100 µM
TGI [6]: > 100 µM
TGI [7]: > 100 µM
TGI [8]: > 100 µM

CC(=O)Nc1ccc(S(=O)(=O)Nc2nnc(S(N)(=O)=O)s2)cc1
TGI [2]: > 100 µM
TGI [9]: > 100 µM
TGI [10]: > 100 µM
TGI [3]: > 100 µM
TGI [4]: > 100 µM
TGI [6]: > 100 µM
TGI [7]: > 100 µM
TGI [8]: > 100 µM

C=Nc1ccc([N+](=O)[O-])cc1
TGI [1]: > 60.5 µM
TGI [9]: > 100 µM
TGI [10]: > 100 µM
TGI [3]: > 100 µM
TGI [4]: > 100 µM
TGI [5]: > 100 µM
TGI [6]: > 100 µM
TGI [7]: > 100 µM
TGI [8]: > 100 µM

C(=N\Nc1ncc(-c2cc3cc4c(cc3o2)OCO4)s1)/c1c[nH]c2ccccc12
GI50 [1]: 0.382 µM
TGI [1]: > 100 µM
GI50 [2]: 1.33 µM
TGI [2]: 2.78 µM
GI50 [9]: 1.18 µM
TGI [9]: 3.21 µM
GI50 [3]: 0.385 µM
TGI [3]: 9.49 µM
GI50 [4]: 0.669 µM
TGI [4]: 1.98 µM
GI50 [5]: 0.392 µM
TGI [5]: > 100 µM
GI50 [6]: 1.49 µM
TGI [6]: 5.34 µM
GI50 [8]: 2.4 µM
TGI [8]: 5.59 µM

Nc1ccc2c(c1)C1Oc3ccccc3CC1CO2 (stereo not given)
TGI [1]: > 100 µM
TGI [9]: > 100 µM
TGI [10]: > 100 µM
TGI [3]: > 100 µM
TGI [4]: > 100 µM
TGI [5]: > 100 µM
TGI [6]: > 100 µM
TGI [7]: > 100 µM
TGI [8]: > 100 µM

Cc1cc(S(=O)(=O)Nc2nc3ccsc3c(=O)n2N)c(S)cc1Cl
TGI [1]: > 100 µM
TGI [9]: > 100 µM
TGI [3]: > 100 µM
TGI [4]: > 100 µM
TGI [5]: > 100 µM
TGI [7]: > 100 µM
TGI [8]: > 100 µM
